“And” between values parts separate entries of the source, which are not always exact repeats. Equal entries are not always repeated.
Tests used:
human dermal fibroblasts [1] = assay: Exposure to Cd(II), fibroblast survival; type: cell-based
human dermal fibroblasts [2] = assay: Exposure to As(III) (sodium arsenite), fibroblast survival; type: cell-based; conditions: 9 mM sodium arsenite, 24 hours, no EDA
Protocol: Deschampsia antarctica extract (EDA): In experiments with fibroblasts, lyophilized EDA batch 051214 was used. The product was dissolved in a complete DMEM medium at a concentration of 5 mg/ml, stirred in a magnetic stirrer for 30 minutes and filtered through a 0.2 μm sterile cellulose acetate filter (Minisart, Sartorius).
As(III): sodium arsenite (NaAsO2) at a final concentration of 9 mM was dissolved in phenol red-free DMEM medium and filtered through a 0.2 μm sterile cellulose acetate filter (Minisart, Sartorius).
The cells used were human dermal fibroblasts isolated from the outer area of the retroauricular flap obtained from different healthy voluntary donors and preserved in liquid N2. The experiments used cells grown in culture flasks containing DMEM supplemented with 2 mM glutamine, […], 10% fetal bovine serum, in a Heraeus oven with an atmosphere of 7% CO2 and 93% humidified air at 37° C., until reaching about 90% of confluence, after which a new pass was performed by means of trypsinization. […]
The plates were washed twice with Hank's. […] It was carefully stirred in a plate stirrer and the absorbance at 550 nm was read in a BMG Fluostar Optima spectrophotometer.

SMILES | Survival % (human dermal fibroblasts [1]; 3 μM Cd, 24 hours, no EDA) [%] | Survival x (human dermal fibroblasts [1]; 3 μM Cd, 24 hours, no EDA) [u abs] | mortality (human dermal fibroblasts [1]; Cd(II) at 3 μM (FIG. 7)) | Survival % (vs CC) (human dermal fibroblasts [2]) | Survival x (human dermal fibroblasts [2])
[Cl][Cd][Cl] [Cd, cadmium chloride] | 54.9 | 0.188 | about 50% |  | 
O=[As]O [sodium arsenite] |  |  |  | 42.0% and 54.6% and 46.4% | 0.209 u abs and 0.206 u abs and 0.334 u abs
